From US20240122932A1, “Methods of Treating B-Cell Malignancy Using Bcl-2 Inhibitor” (BeiGene Switzerland GmbH, priority 2021, published 2024)

System: JeKo-1 human mantle cell lymphoma (MCL) subcutaneous xenograft
Assay: JeKo-1 human MCL subcutaneous xenograft model, Bcl-2 inhibitor with BTK inhibitor
Type: in vivo, NCG mice
Settings: 20 mpk p.o. BID
Method: JeKo-1 cells were maintained as suspension cell cultures at 37° C. in a 5% CO2 atmosphere. Five to six-week-old female NCG mice were purchased from Gempharmatech of Information Technology Center. All animals were maintained under specific pathogen free (SPF) “full barrier” condition with free access to food and water. […] Mice were fed with complete granulated feed with Co60 radiosterilization (Beijing Ke Ao Xie Li Feed Co., Ltd.). All experiments were carried out in accordance with BeiGene's IACUC.
Re-suspended cells were placed on ice prior to inoculation. […] Each animal was injected subcutaneously with 1×10^7 cells in 200 μL of cell suspension in the right front flank via a 26-gauge needle. After implantation, primary tumor volume was measured in two dimensions using a caliper.
Transplanted animals were randomized into 8 groups with 10 mice per group on day 0 according to transplantation sequence and body weight. […] Treatments were administered by oral gavage (p.o.) in a volume of 10 mL/kg body weight. Body weight was assessed immediately before dosing and volume dosed was adjusted accordingly.
Individual body weight was recorded twice weekly, with mice being monitored daily for clinical signs of toxicity for the duration of the study. Mice were euthanized using carbon dioxide when their tumor volume reached 2,000 mm^3, the tumor was ulcerated, or body weight loss exceeded 20%.
Tumor volume (TV) was calculated using the formula: TV=0.5×(a×b^2) where a and b are the long and short diameters of the tumor, respectively. […] (treated t=treated tumor volume at time t, vehicle t=vehicle tumor volume at time t)

Structure (SMILES): C=CC(=O)N1CCC([C@@H]2CCNc3c(C(N)=O)c(-c4ccc(Oc5ccccc5)cc4)nn32)CC1 [Compound B, (S)-7-(1-acryloylpiperidin-4-yl)-2-(4-phenoxyphenyl)-4,5,6,7-tetra-hydropyrazolo[1,5-a]pyrimidine-3-carboxamide, reference compound]
- Mean TV (D 21) (mm^3 ± SEM): 799.8 ± 73.2 mm^3
- TGI (%) (day 21, 20 mg/kg): 56%
